These results are taken from patent US20240108610A1, “RECTAL ADMINISTRATION OF ROFLUMILAST FOR THE TREATMENT OF CROHN'S DISEASE” (King Abdulaziz University, priority 2022, published 2024).

Common to all, as to format: in vivo, rat
The subject of one assay is TNF-α. Briefly: TNF-α immunostaining of colonic sections. The protocol:
(§1) Chronic colitis was induced by weekly rectal injections of increasing doses of TNBS over 6 weeks (15, 30, 45, 60, 60, and 60 mg from day 0 to day 35), as previously described (4,12). Briefly, after food deprivation for 24 h, rats were anesthetized with an intraperitoneal injection of 1% isoflurane. TNBS was dissolved in ethanol (50%) and instilled into the colon using a cannula (0.25 mL), and then the rats were held upside down for 3 min to prevent escape of the intracolonic TNBS. Roflumilast was dissolved in dimethyl sulfoxide and diluted in 0.5% carboxymethyl cellulose sodium to a final concentration of 5.0 mg·kg^−1·day^−1 as previously described (13). Five groups of rats (n=8) were established: normal control (NC group), TNBS-treated (TNBS group, positive control), and three TNBS-treated groups that received oral sulfasalazine (SS group, 500 mg/kg) (14), oral roflumilast (by gastric gavage, OR group, 5 mg/kg), or rectal roflumilast (RR group, 5 mg/kg). Treatments were administered once daily in a volume of 200 μL for 15 days starting 48 h after the induction of colitis (from day 37) (15), and the control rats received equal amounts of vehicle. At the end of the treatment period, the rats were evaluated with the colitis activity score. To detect the effects of the treatments on systemic inflammatory processes, blood was collected for measurements of the proinflammatory mediators TNF-α, IL-2, and IL-6. At the end of the 15-day treatment period, the rats were sacrificed by cervical dislocation, and the colon was isolated, cleaned of feces, and measured for weight and length. Colonic myeloperoxidase (MPO) activity and glutathione (GSH) and malonaldehyde (MDA) levels were measured. The colon was examined macroscopically for gross changes and microscopically in sections stained with hematoxylin and eosin (H&E), Masson trichrome, and Periodic Acid Schiff (PAS) stains as well as KI-67 and TNF-α immunostaining. […] This primary antibody was detected using avidin-biotin peroxidase detection solution (Dako), and the signal was visualized using diaminobenzidine. […]

The next assay has as its system KI-67. Briefly: KI-67 immunostaining of colonic sections. The protocol:
as §1

Another assay concerns IL-2. Briefly: Serum IL-2 ELISA in TNBS-induced colitis. The settings on record: means±SE, n = 8. The procedure: Chronic colitis was induced by weekly rectal injections of increasing doses of TNBS over 6 weeks (15, 30, 45, 60, 60, and 60 mg from day 0 to day 35), as previously described (4,12). Briefly, after food deprivation for 24 h, rats were anesthetized with an intraperitoneal injection of 1% isoflurane. TNBS was dissolved in ethanol (50%) and instilled into the colon using a cannula (0.25 mL), and then the rats were held upside down for 3 min to prevent escape of the intracolonic TNBS. Roflumilast was dissolved in dimethyl sulfoxide and diluted in 0.5% carboxymethyl cellulose sodium to a final concentration of 5.0 mg·kg^−1·day^−1 as previously described (13). Five groups of rats (n=8) were established: normal control (NC group), TNBS-treated (TNBS group, positive control), and three TNBS-treated groups that received oral sulfasalazine (SS group, 500 mg/kg) (14), oral roflumilast (by gastric gavage, OR group, 5 mg/kg), or rectal roflumilast (RR group, 5 mg/kg). Treatments were administered once daily in a volume of 200 μL for 15 days starting 48 h after the induction of colitis (from day 37) (15), and the control rats received equal amounts of vehicle. At the end of the treatment period, the rats were evaluated with the colitis activity score. To detect the effects of the treatments on systemic inflammatory processes, blood was collected for measurements of the proinflammatory mediators TNF-α, IL-2, and IL-6. At the end of the 15-day treatment period, the rats were sacrificed by cervical dislocation, and the colon was isolated, cleaned of feces, and measured for weight and length. Colonic myeloperoxidase (MPO) activity and glutathione (GSH) and malonaldehyde (MDA) levels were measured. The colon was examined macroscopically for gross changes and microscopically in sections stained with hematoxylin and eosin (H&E), Masson trichrome, and Periodic Acid Schiff (PAS) stains as well as KI-67 and TNF-α immunostaining. Blood was collected through cardiac puncture. The serum was obtained and stored at −80° C. until analysis. […]
For orientation: An ELISA detects its analyte on a solid surface through an enzyme-linked reagent.

[1] abbreviates: oral, once daily for 15 days, sulfasalazine 500 mg/kg, roflumilast 5 mg/kg.
The mark [2] stands for this setting: rectal, 5 mg/kg once daily for 15 days.
Setting [3] is: oral, once daily for 15 days, SS 500 mg/kg, OR 5 mg/kg.

Marks after values point to notes of the source that are not given here.

Consider `O=C(Nc1c(Cl)cncc1Cl)c1ccc(OC(F)F)c(OCC2CC2)c1` [roflumilast], for which the “TNF-α immunoexpression in the mucosa” value in the assay on TNF-α (setting [1]) is on record as “moderately positive reactions”; in the assay on TNF-α (setting [2]) it was “strong positive reactions”. For the same compound, the “KI-67 immunoexpression in the mucosa” value is listed as “mildly positive reactions” with KI-67 (setting [1]) and “very mild positive reactions” in the assay on KI-67 (setting [2]). Further, the “serum level of IL-2” value in the assay on IL-2 (setting [3]) is listed as 302.75 ± 11.32^g, h, i pg/mL; with IL-2 (setting [2]), 363.87 ± 12.73^g pg/mL.

As for `O=C(O)c1cc(/N=N/c2ccc(S(=O)(=O)Nc3ccccn3)cc2)ccc1O` [sulfasalazine], the “TNF-α immunoexpression in the mucosa” value in the assay on TNF-α (setting [1]) was “very faint positive reactions”. In the assay on KI-67 (setting [1]), the “KI-67 immunoexpression in the mucosa” value is recorded as “moderately positive reactions”. Further, the “serum level of IL-2” value in the assay with IL-2 (setting [3]) was 257.97 ± 7.72^g pg/mL.
